Data from patent US12240862B2, “Inhibitors of peptidylarginine deiminases” (Gilead Sciences, Inc., priority 2020, dated 2025).
pIC50: −log10 of the molar value.

These molecules were tested against T1, human PAD4 (Homo sapiens, UniProt Q9UM07) (assay: In vitro PAD4 BAEE biochemical assay). Settings: human PAD4, BAEE substrate; 5 nM PAD4, 2 mM calcium chloride, 3 mM BAEE; geometric mean of multiple experiments.
T1 construct: human PAD4 (NM_012387), A2P663, was PCR amplified; His-SUMO (N, cleaved yes); made in house; host or cells: E. coli BL21(DE3)
T1 sequence (Q9UM07 2-663): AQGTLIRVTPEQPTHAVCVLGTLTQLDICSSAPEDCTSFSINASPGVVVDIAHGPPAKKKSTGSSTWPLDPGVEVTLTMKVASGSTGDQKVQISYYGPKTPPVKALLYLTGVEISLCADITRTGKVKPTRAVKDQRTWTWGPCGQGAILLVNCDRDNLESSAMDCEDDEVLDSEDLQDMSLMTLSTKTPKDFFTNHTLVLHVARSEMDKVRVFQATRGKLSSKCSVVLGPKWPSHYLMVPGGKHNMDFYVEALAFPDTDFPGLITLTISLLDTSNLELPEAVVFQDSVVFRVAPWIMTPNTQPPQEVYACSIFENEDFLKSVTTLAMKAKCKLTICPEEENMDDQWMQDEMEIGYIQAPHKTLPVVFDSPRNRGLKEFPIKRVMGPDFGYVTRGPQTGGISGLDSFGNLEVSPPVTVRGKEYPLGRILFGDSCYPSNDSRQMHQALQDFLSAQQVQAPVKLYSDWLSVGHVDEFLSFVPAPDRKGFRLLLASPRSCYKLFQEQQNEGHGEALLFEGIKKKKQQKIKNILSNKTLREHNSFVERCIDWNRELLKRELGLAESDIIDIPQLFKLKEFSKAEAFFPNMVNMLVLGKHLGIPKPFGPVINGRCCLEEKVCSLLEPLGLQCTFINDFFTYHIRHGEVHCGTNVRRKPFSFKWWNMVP
In short: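 Ammonia generated from BAEE serves as the readout, measured by o-phthalaldehyde after EDTA termination. Final conditions: 5 nM human PAD4 (SUMO tag cleaved), 2 mM CaCl2, 3 mM BAEE, pH 7.6 MOPS buffer, 25 °C for 2 h following a 30-min compound preincubation.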

Point of comparison: `COc1cc(C(=O)N2[C@H]3CC[C@@H]2[C@H](N)C3)cc2nc(-c3cc4ccc(OCC(=O)N(C)C)nc4n3CC3CC3)c(C)n12` [Example 624, 2-[2-[7-[(1~{R},2~{R}, 4~{S})-2-amino-7-azabicyclo[2.2.1]heptane-7-carbonyl]-5-methoxy-3-methylimidazo[1,2-a]pyridin-2-yl]-1-(cyclopropylmethyl)pyrrolo [2,3-b]pyridin-6-yl] oxy-~{N},~{N}-dimethylacetamide], pIC50 6.94. Against it:
- COc1cc(C(=O)N2CCC[C@@H](N)C2)cc2nc(-c3cc4ccc([C@@H](C)NC(=O)C56CC(C#N)(C5)C6)nc4n3CC3CC3)c(C3CC3)n12 [Example 139, ~{N}-[(1~{R})-1-[2-[7-[(3~{R})-3-aminopiperidine-1-carbonyl]-3-cyclopropyl-5-methoxyimidazo [1,2-a]pyridin-2-yl]-1-(cyclopropylmethyl)pyrrolo [2,3-b]pyridin-6-yl]ethyl]-3-cyanobicyclo[1.1.1]pentane-1-carboxamide] — 0.26 log units lower, 6.68
- COc1cc(C(=O)N2[C@H]3CC[C@@H]2[C@H](N)C3)cc2nc(-c3cc4ccc([C@@H](C)NC(=O)N5CC[C@H](CCO)C5)nc4n3CC3CC3)c(C)n12 [Example 215, (3~{R})-~{N}-[(1~{R})-1-[2-[7-[(1~{R},2~{R}, 4~{S})-2-amino-7-azabicyclo[2.2.1]heptane-7-carbonyl]-5-methoxy-3-methylimidazo [1,2-a]pyridin-2-yl]-1-(cyclopropylmethyl)pyrrolo [2,3-b]pyridin-6-yl]ethyl]-3-(2-hydroxyethyl)pyrrolidine-1-carboxamide] — 0.41 log units higher, 7.35
- COc1cc(C(=O)N2[C@@H]3CC[C@@H](N)[C@H]2CC3)cc2nc(-c3cc4ccc(N(C(F)F)S(C)(=O)=O)nc4n3CC3CC3)c(C3CC3)n12 [Example 382, ~{N}-[2-[7-[(1~{R},2~{R}, 5~{R})-2-amino-8-azabicyclo[3.2.1]octane-8-carbonyl]-3-cyclopropyl-5-methoxyimidazo[1,2-a]pyridin-2-yl]-1-(cyclopropylmethyl)pyrrolo [2,3-b]pyridin-6-yl]-~{N}-(difluoromethyl) methanesulfonamide] — 0.25 log units lower, 6.69
- COc1cc(C(=O)N2[C@H]3CC[C@@H]2[C@H](N)C3)cc2nc(-c3cc4ccc([C@@H](C)NC(=O)C5(F)CC5)nc4n3CC3CC3)c(C)n12 [Example 136, ~{N}-[(1~{R})-1-[2-[7-[(1~{R},2~{R},4~{S})-2-amino-7-azabicyclo[2.2.1]heptane-7-carbonyl]-5-methoxy-3-methylimidazo [1,2-a]pyridin-2-yl]-1-(cyclopropylmethyl)pyrrolo [2,3-b]pyridin-6-yl]ethyl]-1-fluorocyclopropane-1-carboxamide] — within 0.2 log units, 6.84
- CCc1ccc2cc(-c3nc4cc(C(=O)N5CCC6CCNC6C5)cc(OC)n4c3C)n(CC3CC3)c2n1 (stereo not shown) [Example 583, 1,2,3,3~{a},4,5,7,7~{a}-octahydropyrrolo[2,3-c] pyridin-6-yl-[2-[1-(cyclopropylmethyl)-6-ethylpyrrolo[2,3-b]pyridin-2-yl]-5-methoxy-3-methylimidazo[1,2-a]pyridin-7-yl]methanone] — 0.67 log units lower, 6.27
- COc1cc(C(=O)N2[C@H]3CC[C@@H]2[C@H](N)C3)cc2nc(-c3cc4ccc([C@@H](C)NC(=O)C(C)(C)OC)nc4n3CC3CC3)c(C)n12 [Example 172, ~{N}-[(1~{R})-1-[2-[7-[(1~{R},2~{R},4~{S})-2-amino-7-azabicyclo[2.2.1]heptane-7-carbonyl]-5-methoxy-3-methylimidazo [1,2-a]pyridin-2-yl]-1-(cyclopropylmethyl)pyrrolo [2,3-b]pyridin-6-yl]ethyl]-2-methoxy-2-methylpropanamide] — within 0.2 log units, 7.01
- CCCC(CC(=O)N1CCCC1)c1ccc2cc(-c3nc4cc(C(=O)N5[C@H]6CC[C@@H]5[C@H](N)C6)cc(OC)n4c3C)n(CC3CC3)c2n1 (stereo partly shown) [Example 541, 3-[2-[7-[(1~{R},2~{R}, 4~{S})-2-amino-7-azabicyclo[2.2.1]heptane-7-carbonyl]-5-methoxy-3-methylimidazo[1,2-a]pyridin-2-yl]-1-(cyclopropylmethyl)pyrrolo [2,3-b]pyridin-6-yl]-1-pyrrolidin-1-ylhexan-1-one] — 0.37 log units lower, 6.57
- COc1cc(C(=O)N2[C@H]3CC[C@@H]2[C@H](N)C3)cc2nc(-c3cc4ccc(C(C)n5cncn5)nc4n3CC3CC3)c(C)n12 (stereo partly shown) [Example 546, [(1~{R},2~{R},4~{S})-2-amino-7-azabicyclo [2.2.1]heptan-7-yl]-[2-[1-(cyclopropylmethyl)-6-[1-(1,2,4-triazol-1-yl)ethyl]pyrrolo[2,3-b]pyridin-2-yl]-5-methoxy-3-methylimidazo[1,2-a]pyridin-7-yl]methanone] — within 0.2 log units, 6.81
- [2H]C([2H])([2H])N(c1ccc2cc(-c3nc4cc(C(=O)N5C[C@H]6CC[C@@H]5[C@@H]6N)cc(OC)n4c3C)n(CC3CC3)c2n1)S(=O)(=O)Cc1ccccc1 [Example 471, N-[2-[7-[(1R,4R,7R)-7-amino-2-azabicyclo[2.2.1]heptane-2-carbonyl]-5-methoxy-3-methyl-imidazo [1,2-a]pyridin-2-yl]-1-(cyclopropylmethyl)pyrrolo[2,3-b]pyridin-6-yl]-1-phenyl-N-(trideuteriomethyl) methanesulfonamide] — 1.07 log units lower, 5.87
- CCC1C(N)C2CCC1N2C(=O)c1cc(OC)n2c(C)c(-c3cc4ccc(N(C(F)F)S(C)(=O)=O)nc4n3CC3CC3)nc2c1 (single isomer, unassigned) [Example 346] — 1.27 log units lower, 5.67
- COc1cc(C(=O)N2[C@H]3CC[C@@H]2[C@H](N)C3)cc2nc(-c3cc4ccc(C(C)(C)NC(=O)C(C)(C)C)nc4n3CC3CC3)c(C)n12 [Example 168, ~{N}-[2-[2-[7-[(1~{R},2~{R},4~{S})-2-amino-7-azabicyclo[2.2.1]heptane-7-carbonyl]-5-methoxy-3-methylimidazo [1,2-a]pyridin-2-yl]-1-(cyclopropylmethyl)pyrrolo [2,3-b]pyridin-6-yl]propan-2-yl]-2,2-dimethylpropanamide] — within 0.2 log units, 6.77
- COc1cc(C(=O)N2[C@H]3CC[C@@H]2[C@H](N)C3)cc2nc(-c3cc4ccc([C@@H](C)NC(=O)N5CC(F)(F)C(F)(F)C5)nc4n3CC3CC3)c(C)n12 [Example 208, ~{N}-[(1~{R})-1-[2-[7-[(1~{R},2~{R},4~{S})-2-amino-7-azabicyclo[2.2.1]heptane-7-carbonyl]-5-methoxy-3-methylimidazo [1,2-a]pyridin-2-yl]-1-(cyclopropylmethyl)pyrrolo [2,3-b]pyridin-6-yl]ethyl]-3,3,4,4-tetrafluoropyrrolidine-1-carboxamide] — within 0.2 log units, 6.95
- CCc1ccc2cc(-c3nc4cc(C(=O)N5[C@H]6CC[C@@H]5[C@H](N)C6)cc(OC)n4c3C)n(CC3CCCC3)c2n1 [Example 509, [(1~{R},2~{R},4~{S})-2-amino-7-azabicyclo [2.2.1]heptan-7-yl]-[2-[1-(cyclopentylmethyl)-6-ethylpyrrolo[2,3-b]pyridin-2-yl]-5-methoxy-3-methylimidazo[1,2-a]pyridin-7-yl]methanone] — 0.76 log units lower, 6.18
- COc1cc(C(=O)N2CC[C@@H]3CCNC[C@@H]32)cc2nc(-c3cc4ccc(N(C(F)F)S(C)(=O)=O)nc4n3CC3CC3)c(C)n12 [Example 321, ~{N}-[2-[7-[(3~{a}~{S},7~{a}~{R})-2,3,3~{a},4,5,6,7,7~{a}-octahydropyrrolo[2,3-c]pyridine-1-carbonyl]-5-methoxy-3-methylimidazo[1,2-a]pyridin-2-yl]-1-(cyclopropylmethyl)pyrrolo [2,3-b]pyridin-6-yl]-~{N}-(difluoromethyl) methanesulfonamide] — 0.38 log units lower, 6.56
- COc1cc(C(=O)N2C[C@H]3CCCN[C@H]3C2)cc2nc(-c3cc4ccc([C@@H](C)NC(=O)c5ccccc5)nc4n3CC3CC3)c(C)n12 [Example 58, ~{N}-[(1~{R})-1-[2-[7-[(4~{a}~{R}, 7~{a}~{R})-1,2,3,4,4~{a},5,7,7~{a}-octahydropyrrolo[3,4-b]pyridine-6-carbonyl]-5-methoxy-3-methylimidazo[1,2-a]pyridin-2-yl]-1-(cyclopropylmethyl)pyrrolo[2,3-b]pyridin-6-yl]ethyl]benzamide] — 0.83 log units lower, 6.11
- COc1cc(C(=O)N2[C@H]3CC[C@@H]2[C@H](N)C3)cc2nc(-c3cc4ccc(C(C)(O)C(C)C)nc4n3CC3CC3)c(C)n12 (stereo partly shown) [Example 571, [(1~{R},2~{R},4~{S})-2-amino-7-azabicyclo [2.2.1]heptan-7-yl]-[2-[1-(cyclopropylmethyl)-6-(2-hydroxy-3-methylbutan-2-yl)pyrrolo[2,3-b]pyridin-2-yl]-5-methoxy-3-methylimidazo[1,2-a]pyridin-7-yl]methanone] — 0.61 log units lower, 6.33
- COc1cc(C(=O)N2CC[C@@H]3CCNC[C@H]32)cc2nc(-c3cc4ccc(N(C(F)F)S(C)(=O)=O)nc4n3CC3CC3)c(C)n12 [Example 418, ~{N}-[2-[7-[(3~{a}~{S}, 7~{a}~{S})-2,3,3~{a},4,5,6,7,7~{a}-octahydropyrrolo[2,3-c]pyridine-1-carbonyl]-5-methoxy-3-methylimidazo[1,2-a]pyridin-2-yl]-1-(cyclopropylmethyl)pyrrolo [2,3-b]pyridin-6-yl]-~{N}-(difluoromethyl) methanesulfonamide] — within 0.2 log units, 6.82
- COc1cc(C(=O)N2[C@H]3CC[C@@H]2[C@H](N)C3)cc2nc(-c3cc4ccc([C@@H](C)NC(=O)CC(C)(C)C(=O)O)nc4n3CC3CC3)c(C)n12 [Example 161, 4-[[(1~{R})-1-[2-[7-[(1~{R},2~{R},4~{S})-2-amino-7-azabicyclo[2.2.1]heptane-7-carbonyl]-5-methoxy-3-methylimidazo [1,2-a]pyridin-2-yl]-1-(cyclopropylmethyl)pyrrolo [2,3-b]pyridin-6-yl]ethyl]amino]-2,2-dimethyl-4-oxobutanoic acid] — within 0.2 log units, 7.10
